Measured values published in patent publication US20180207105A1, “METHOD FOR MANUFACTURING A THERAPEUTIC AGENT FOR USE IN THE TREATMENT OF INFECTIONS” (AGA NANOTECH LTD, priority 2014, published 2018).

Assay: pH of solutions of the active ingredients alone dissolved in ultrapure water
Assay type: physicochemical
[1] = 17.5 mg/ml (1.75 wt %) in ultrapure water
[2] = 35 mg/ml (3.5 wt %) in ultrapure water
[3] = 70 mg/ml (7 wt %) in ultrapure water
[4] = 140 mg/ml (14 wt %) in ultrapure water
[5] = 280 mg/ml (28 wt %) in ultrapure water

SMILES	pH of solution [1]	pH of solution [2]	pH of solution [3]	pH of solution [4]	pH of solution [5]
O=C([O-])[O-].O=C([O-])[O-].OO.OO.OO.[Na+].[Na+].[Na+].[Na+] [Sodium Percarbonate, Sodium percarbonate]	10.83	10.89	10.87	10.83	10.74
NC(N)=O.OO [Urea Hydrogen Peroxide, urea hydrogen peroxide]	7.90	6.92	6.9	6.38	4.97
